Data taken from ChEMBL document CHEMBL1201862, “PubChem BioAssay data set” (2004).
Activity calls are given as the source filed them.

Legend:
[1] = target: Luciferin 4-monooxygenase (Photinus pyralis, UniProt P08659); experiment: firefly luciferase enzyme inhibitors, dose response, biochemical, luminescence (AID 1891)
[2] = Luminescence Cell-Based Dose Confirmation HTS to Identify Inhibitors of Platelet Dense Granule Release. [Related pubchem assays: 1663 (Primary HTS), 1678 (Summary of Project)]; format: functional
[3] = P. falciparum Dd2 growth inhibitors, dose response, SYBR Green, cherry-picked samples (AID 1159567); format: functional, cell-based
[4] = target: T1, Corticotropin-releasing factor receptor 2/Corticotropin-releasing factor-binding protein (Homo sapiens, UniProt P24387+Q13324); experiment: Dose Response confirmation of uHTS hits for small molecule antagonists of the CRF-binding protein and CRF-R2 receptor complex.; format: functional; conditions: read-out: IC50_Mean
T1 sequence (Q13324 whole entry): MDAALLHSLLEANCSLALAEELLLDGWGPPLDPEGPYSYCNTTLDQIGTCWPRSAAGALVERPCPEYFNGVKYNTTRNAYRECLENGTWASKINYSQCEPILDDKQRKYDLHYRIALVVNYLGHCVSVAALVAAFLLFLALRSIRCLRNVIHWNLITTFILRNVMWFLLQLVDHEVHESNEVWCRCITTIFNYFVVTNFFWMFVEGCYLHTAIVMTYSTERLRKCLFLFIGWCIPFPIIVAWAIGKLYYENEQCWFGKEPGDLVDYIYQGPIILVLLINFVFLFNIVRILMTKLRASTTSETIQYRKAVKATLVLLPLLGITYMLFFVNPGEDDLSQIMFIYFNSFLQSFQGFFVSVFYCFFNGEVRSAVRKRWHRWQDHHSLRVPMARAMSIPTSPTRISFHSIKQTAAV
T1 sequence (P24387 whole entry): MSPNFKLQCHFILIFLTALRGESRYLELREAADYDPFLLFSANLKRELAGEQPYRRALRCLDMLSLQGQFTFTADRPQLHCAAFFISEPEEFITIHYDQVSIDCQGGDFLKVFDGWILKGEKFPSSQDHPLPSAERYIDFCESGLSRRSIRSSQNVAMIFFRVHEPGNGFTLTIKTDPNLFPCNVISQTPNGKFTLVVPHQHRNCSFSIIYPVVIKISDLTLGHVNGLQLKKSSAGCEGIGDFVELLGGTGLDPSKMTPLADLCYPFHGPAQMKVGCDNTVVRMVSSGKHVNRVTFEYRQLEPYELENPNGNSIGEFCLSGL

[5] = target: T1, Corticotropin-releasing factor receptor 2/Corticotropin-releasing factor-binding protein; experiment: activators of CRF receptor 2 with binding protein – uHTS hits, confirmation (AID 602473); format: functional; conditions: read-out: EC50_Mean
[6] = NIH-3T3 fibroblast cytotoxicity, dose response, cytotoxicity control, cell-based, fluorescence, Alamar Blue, secondary assay (AID 2327); format: functional;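 further: NIH-3T3 mouse fibroblasts cultured with fluconazole at 8 µg/mL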
[7] = C. albicans growth with fluconazole, confirmation, fluorescence, retest (AID 2467); format: functional, cell-based
[8] = target: Cytochrome P450 3A4 (Homo sapiens, UniProt P08684);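 further: CYP3A4 tested as one member of a cytochrome P450 panel screen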
[9] = target: T2, Cytochrome P450 2C9 (Homo sapiens, UniProt P11712)
[10] = Luminescence Cell-Based Dose Confirmation HTS to Identify Activators of 5'UTR Stem-Loop Driven Alpha-Synuclein mRNA Translation in H4 Neuroglioblastoma Cells. [Related pubchem assays: 1829 (Project Summary), 1814 (Primary HTS)]; format: functional
[11] = Luminescence Cell-Based Dose Response HTS to Identify Activators of Luciferase Translation or Activity in H4 […] Cells. [Related pubchem assays: 1829 (Project Summary), 1814 (Primary HTS)]; format: functional
[12] = system: H4; experiment: Luminescence Cell-Based Dose Response HTS to Identify Activators of 5'UTR Stem-Loop Driven Prion Protein mRNA Translation in H4 Neuroglioblastoma Cells. [Related pubchem assays: 1829 (Project Summary), 1814 (Primary HTS)]; format: functional; conditions: Homo sapiens
[13] = inhibitors of clade B AD8 Env fusion, dose response, cell-based, cherry-pick (AID 652062); format: functional;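 further: luciferase signal from cell-cell fusion driven by HIV-1 clade B AD8 Env; potency is for inhibitors of fusion seen as a drop in luminescence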
[14] = inhibitors of intracellular T. cruzi replication, confirmation, NIH3T3 host cells, beta-gal luminescence (AID 2044); format: functional, cell-based;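 further: intracellular parasites grown in NIH/3T3 mouse fibroblasts as host cells; luminescent beta-galactosidase reporter signal from transgenic T. cruzi replicating inside host cells; inhibitors lower the luminescence signal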
[15] = cytotoxicity toward NIH3T3 fibroblasts, dose response, counter-screen, cell-based, ATP luminescence, mouse fibroblasts (AID 2010); format: functional;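 further: cells exposed to compound for about 90 hours before reading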
[16] = target: Cytochrome P450 2C19 (Homo sapiens, UniProt P33261); experiment: Cytochrome panel assay with activity outcomes. Panel member name: p450-cyp2c19 Compounds with AC50 equal or less than 10 uM are considered active; format: functional
[17] = target: T2, Cytochrome P450 2C9; remark: listed apart in the source
[18] = system: Streptococcus sp. 'group A'; experiment: growth inhibition of control SK(-) GAS strain, dose response, counter-screen for streptokinase expression inhibitor project, luminescence, kanamycin, BacTiterGlo, confirmation (AID 1900); format: functional, organism-based
[19] = system: Streptococcus; experiment: Group A Streptococcus viability loss, dose response, counter-screen for streptokinase expression inhibitor project, luminescence, BacTiterGlo (AID 1915); format: functional, organism-based;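 further: potency for reduction of bacterial viability or growth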
[20] = target: T3, Cytochrome P450 1A2 (Homo sapiens, UniProt P05177);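 further: PubChem cytochrome P450 panel assay, CYP1A2 panel member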
T3 sequence (P05177 whole entry): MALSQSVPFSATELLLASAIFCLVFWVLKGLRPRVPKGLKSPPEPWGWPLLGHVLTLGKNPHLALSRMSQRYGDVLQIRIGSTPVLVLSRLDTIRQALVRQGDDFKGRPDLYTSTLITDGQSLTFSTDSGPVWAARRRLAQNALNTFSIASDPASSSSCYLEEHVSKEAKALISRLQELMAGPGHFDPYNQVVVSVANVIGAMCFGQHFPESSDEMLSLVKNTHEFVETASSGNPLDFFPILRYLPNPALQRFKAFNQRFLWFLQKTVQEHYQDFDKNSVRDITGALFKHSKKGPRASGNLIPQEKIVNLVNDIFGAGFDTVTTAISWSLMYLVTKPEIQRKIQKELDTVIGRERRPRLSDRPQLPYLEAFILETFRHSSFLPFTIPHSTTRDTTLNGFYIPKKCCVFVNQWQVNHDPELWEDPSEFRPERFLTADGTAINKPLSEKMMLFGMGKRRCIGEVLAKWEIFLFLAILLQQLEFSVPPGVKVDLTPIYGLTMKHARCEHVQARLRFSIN

Sequence of Cytochrome P450 3A4 (P08684 whole entry): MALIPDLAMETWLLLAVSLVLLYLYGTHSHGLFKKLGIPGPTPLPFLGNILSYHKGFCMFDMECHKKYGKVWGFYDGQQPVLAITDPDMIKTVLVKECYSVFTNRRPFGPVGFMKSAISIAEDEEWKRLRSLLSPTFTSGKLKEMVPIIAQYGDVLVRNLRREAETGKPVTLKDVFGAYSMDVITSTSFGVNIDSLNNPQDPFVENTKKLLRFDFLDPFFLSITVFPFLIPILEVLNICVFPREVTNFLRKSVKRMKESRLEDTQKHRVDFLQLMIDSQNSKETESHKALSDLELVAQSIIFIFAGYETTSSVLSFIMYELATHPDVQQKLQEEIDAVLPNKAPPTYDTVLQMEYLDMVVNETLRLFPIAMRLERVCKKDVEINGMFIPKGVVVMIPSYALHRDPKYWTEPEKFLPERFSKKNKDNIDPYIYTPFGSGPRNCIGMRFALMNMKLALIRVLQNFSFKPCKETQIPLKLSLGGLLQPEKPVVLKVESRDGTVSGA
Sequence of Cytochrome P450 2C19 (P33261 whole entry): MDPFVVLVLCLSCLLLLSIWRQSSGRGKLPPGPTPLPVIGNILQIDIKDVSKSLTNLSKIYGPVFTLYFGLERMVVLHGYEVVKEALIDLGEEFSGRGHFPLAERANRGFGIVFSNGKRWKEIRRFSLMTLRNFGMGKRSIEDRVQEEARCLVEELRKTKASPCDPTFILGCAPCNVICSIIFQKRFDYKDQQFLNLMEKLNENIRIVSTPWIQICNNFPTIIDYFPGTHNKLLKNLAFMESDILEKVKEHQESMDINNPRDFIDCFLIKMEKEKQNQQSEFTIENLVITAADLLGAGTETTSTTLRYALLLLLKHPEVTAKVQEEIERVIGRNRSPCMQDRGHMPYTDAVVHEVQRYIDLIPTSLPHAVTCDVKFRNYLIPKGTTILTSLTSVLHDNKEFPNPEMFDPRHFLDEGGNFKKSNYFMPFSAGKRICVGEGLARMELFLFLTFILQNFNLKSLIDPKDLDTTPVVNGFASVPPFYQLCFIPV
T2 sequence (P11712 whole entry): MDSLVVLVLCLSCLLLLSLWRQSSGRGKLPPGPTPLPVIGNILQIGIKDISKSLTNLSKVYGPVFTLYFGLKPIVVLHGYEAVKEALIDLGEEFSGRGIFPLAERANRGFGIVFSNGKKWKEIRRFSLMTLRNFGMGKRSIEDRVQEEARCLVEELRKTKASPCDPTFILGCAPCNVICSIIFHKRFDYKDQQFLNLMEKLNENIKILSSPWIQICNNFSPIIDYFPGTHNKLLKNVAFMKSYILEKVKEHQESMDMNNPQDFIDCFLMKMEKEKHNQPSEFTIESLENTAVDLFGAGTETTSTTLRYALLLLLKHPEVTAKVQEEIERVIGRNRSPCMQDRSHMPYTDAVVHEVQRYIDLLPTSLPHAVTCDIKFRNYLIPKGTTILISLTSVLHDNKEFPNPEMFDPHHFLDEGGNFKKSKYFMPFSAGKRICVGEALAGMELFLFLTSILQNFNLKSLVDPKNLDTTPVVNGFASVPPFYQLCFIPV
Sequence of Luciferin 4-monooxygenase (P08659 whole entry): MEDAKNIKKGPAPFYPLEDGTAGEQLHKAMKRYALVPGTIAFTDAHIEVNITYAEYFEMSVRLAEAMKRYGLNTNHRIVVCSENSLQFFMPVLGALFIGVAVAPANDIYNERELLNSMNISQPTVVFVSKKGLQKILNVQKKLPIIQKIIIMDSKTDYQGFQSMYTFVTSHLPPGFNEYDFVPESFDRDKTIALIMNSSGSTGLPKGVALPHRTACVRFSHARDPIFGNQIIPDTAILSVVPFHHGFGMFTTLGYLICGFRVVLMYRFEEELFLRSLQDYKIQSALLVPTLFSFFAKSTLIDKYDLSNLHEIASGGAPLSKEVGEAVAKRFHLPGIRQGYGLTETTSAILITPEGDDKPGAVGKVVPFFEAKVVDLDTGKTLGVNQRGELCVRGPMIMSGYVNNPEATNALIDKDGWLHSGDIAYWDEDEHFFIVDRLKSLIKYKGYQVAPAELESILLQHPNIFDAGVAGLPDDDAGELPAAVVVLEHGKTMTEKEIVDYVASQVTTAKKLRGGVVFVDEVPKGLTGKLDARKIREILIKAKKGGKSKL

Compound | IC50 [4] | EC50 [5] | AC50 [9] | other results
O=C1c2ccccc2C(Nc2ccc(Cl)cn2)N1c1ccccn1 (configuration not stated) |  |  |  | EC50 [1]: > 112 µM (not active); EC50 [2]: > 112 µM (not active)
COc1ccc(C#Cc2ccc([C@@H]3[C@@H](CO)N4CCCCN(C(=O)Nc5ccccc5F)C[C@@H]34)cc2)cc1 |  |  |  | AC50 [3]: 8.08 µM (active)
O=C(CN1C(=O)NC2(CCCC2)C1=O)c1ccc(Cl)s1 | > 47.1 µM (inactive) | > 53 µM (inactive) |  | 
COCc1nnc(NC(=O)c2ccc(S(=O)(=O)N3CCCc4ccccc43)cc2)o1 |  |  |  | EC50 [6]: > 150 µM (inconclusive); EC50 [7]: 2.96 µM (active)
O=c1cc(Cc2ccc([N+](=O)[O-])cc2)[nH]c(=O)[nH]1 | > 47.1 µM (inactive) | > 53 µM (inactive) |  | 
Cc1ccccc1C(=O)NC(=S)NCC(=O)c1ccccc1 |  |  | inconclusive | AC50 [8]: 28.2 µM (inconclusive)
COc1ccc(/C=C2\SC(=S)N(CC(=O)NCCO)C2=O)cc1 | > 47.1 µM (inactive) | > 53 µM (inactive) |  | 
Cc1cc2ccccc2c(=O)n1CC(=O)NCC(=O)N1CCCC1 |  |  | inconclusive | 
CCOc1ccc(NC(=O)CCCN2C(=O)C(c3ccccc3)Oc3cccnc32)cc1 (configuration not stated) | > 47.1 µM (inactive) | > 53 µM (inactive) |  | 
Cc1ccc(OCn2c(=O)sc3ccccc32)cc1 | > 47.1 µM (inactive) | > 53 µM (inactive) |  | EC50 [10]: 42 µM (active); EC50 [11]: 35.3 µM (active); EC50 [12]: 14 µM (active)
COc1ccccc1C#Cc1ccc2c(c1)[C@H]1[C@H](CCN1C(=O)CN1CCOCC1)[C@@H](CO)N2 |  |  |  | AC50 [3]: 5.01 µM (active)
CCOc1ccccc1NC(=O)CN1CCC(NC(=O)c2ccccc2)CC1 |  |  | inconclusive | 
CN(C)c1ccnc(-c2cccc(NS(C)(=O)=O)c2)n1 |  |  | inconclusive | AC50 [8]: 31.6 µM (inconclusive)
O=C(c1cc(C(F)(F)F)cc(C(F)(F)F)c1)N1CCC2(CC1)CCN(c1ncccn1)CC2 |  |  | inconclusive | 
CCc1ccc(N2C(=O)c3ccc4c5c(ccc(c35)C2=O)CC4)cc1 |  |  | inconclusive | 
COc1ccc(CC(=S)N2CCOCC2)cc1OC |  |  | inconclusive | 
O=C(/C=C/c1ccccc1)NC(=S)Nc1ccc(N2CCOCC2)c(Cl)c1 |  |  |  | EC50 [6]: > 160 µM (inactive); EC50 [7]: 5.76 µM (active)
CCN1C(=O)[C@H]2[C@@H](c3ccc(C(F)(F)F)cc3)N[C@]3(CCCN(Cc4ccccc4)C3=O)[C@H]2C1=O |  |  |  | AC50 [13]: 0.682 µM (active)
COC(=O)c1c(C)[nH]c(O)c1/C=N/c1ccc(C(C)C)cc1 |  | > 53 µM (inactive) |  | EC50 [14]: 4.19 µM (active); EC50 [15]: > 60 µM (inconclusive); AC50 ([16]; read-out: AC50): 25.1 µM (inconclusive); AC50 [8]: 28.2 µM (inconclusive); AC50 [17]: 28.2 µM (inconclusive)

Compound | IC50 [4] | EC50 [5] | AC50 [9] | other results
CCCCNC(=O)CCc1nc2cccnc2n1Cc1ccc(OC)cc1 | > 47.1 µM (inactive) | > 53 µM (inactive) |  | 
CC1CCC(NC(=O)CCN2C(=O)C3CC=CCC3C2=O)CC1 (configuration not stated) | > 47.1 µM (inactive) | > 53 µM (inactive) |  | 
COc1cc(OC)c(C#N)c(S(=O)(=O)Cc2ccccc2)c1 |  |  | inconclusive | 
CCc1ccc(OCC(=O)NNC(=S)NC(=O)C2CCCCC2)c(Br)c1 |  |  |  | EC50 [6]: > 150 µM (inactive); EC50 [18]: < 0.06 µM (active); EC50 [7]: 2.33 µM (active); EC50 [19]: 3.91 µM (active)
Cc1ccc(S(=O)(=O)n2nnc3ccccc32)c(C)c1C | > 47.1 µM (inactive) | > 53 µM (inactive) |  | 
N#C[C@@H]1[C@H](c2ccccc2-c2cccc(F)c2)[C@@H](CO)N1C(=O)C1CCCC1 |  |  |  | AC50 [3]: 4.79 µM (active)
Cc1nc2ccccn2c1C(=O)N/N=C/c1ccccc1[N+](=O)[O-] |  |  | inconclusive | 
Cc1ccc(-c2csc3nnc(SCC(=O)N4CCN(Cc5ccccc5)CC4)n23)cc1 | > 47.1 µM (inactive) | > 53 µM (inactive) |  | 
O=C(CCCCCN1C(=O)c2cccc3cccc(c23)C1=O)N1CCOCC1 |  |  |  | EC50 [6]: 22.3 µM (active); EC50 [7]: > 38 µM (not active)
O=C(c1ccccc1F)N1CC(=O)N2[C@H](C1)[C@H](c1ccc(-c3ccccc3)cc1)[C@@H]2CO |  |  |  | AC50 [3]: 5.6 µM (active)
Cc1noc(C)c1C(=O)N1CCC2(CCN(Cc3ccccc3)CC2)CC1 |  |  | inconclusive | 
C=CCn1c(C)cc(C(=O)CSc2nnc(Cc3ccccc3)o2)c1C | > 47.1 µM (inactive) | > 53 µM (inactive) |  | 
COc1cccc(Nc2ncc3nc(-c4cn(C)c5ccccc45)c(=O)n(C[C@H]4CCCO4)c3n2)c1 |  |  | inconclusive | 
N#Cc1ccccc1Sc1ccccc1N | > 47.1 µM (inactive) | > 53 µM (inactive) |  | AC50 [20]: 22.4 µM (inconclusive)
COc1ccccc1CNC(=O)C[C@H]1C[C@H]2c3cc(NC(=O)Cc4ccncc4)ccc3O[C@H]2[C@H](CO)O1 |  |  |  | AC50 [3]: 5.4 µM (active)
CN(C)c1nc(C#N)nc(N2CCOCC2)n1 |  |  | inconclusive | AC50 [16]: inconclusive
COc1ccc(CNc2oc(COc3ccccc3)nc2C#N)cc1 | > 47.1 µM (inactive) | > 53 µM (inactive) |  | 
COc1ccccc1NC(=O)c1cnc2n(c1=O)CCS2 |  |  | inconclusive | AC50 [8]: 31.6 µM (inconclusive)
C/C(CC(=O)Nc1cc(Cl)ccc1Cl)=N\NC(N)=S |  |  | inconclusive | AC50 ([16]; read-out: AC50): 28.2 µM (inconclusive); AC50 [20]: 12.6 µM (inconclusive)
